test system: total HDAC; experiment: In vitro total HDAC activity (Fluor-de-Lys, HeLa nuclear extract); type: biochemical, human; details: nuclear extract from HeLa cells, 1µM (footnote a)

Structure (SMILES)	%Inhibition of 1µM
CC(/C=C/C(=O)NO)=C\[C@@H](C)C(=O)c1ccc(N(C)C)cc1 [Trichostatin A]	90^a %

biological target: T1, recombinant protein HDAC8 (Homo sapiens, UniProt Q9BY41); experiment: In vitro HDAC8 isoenzyme activity (Fluor-de-Lys-HDAC8 substrate); type: biochemical; details: 1 U/well, substrate 50 µM
T1 construct: purchased Enzo Life Sciences
T1 sequence (Q9BY41 1-377): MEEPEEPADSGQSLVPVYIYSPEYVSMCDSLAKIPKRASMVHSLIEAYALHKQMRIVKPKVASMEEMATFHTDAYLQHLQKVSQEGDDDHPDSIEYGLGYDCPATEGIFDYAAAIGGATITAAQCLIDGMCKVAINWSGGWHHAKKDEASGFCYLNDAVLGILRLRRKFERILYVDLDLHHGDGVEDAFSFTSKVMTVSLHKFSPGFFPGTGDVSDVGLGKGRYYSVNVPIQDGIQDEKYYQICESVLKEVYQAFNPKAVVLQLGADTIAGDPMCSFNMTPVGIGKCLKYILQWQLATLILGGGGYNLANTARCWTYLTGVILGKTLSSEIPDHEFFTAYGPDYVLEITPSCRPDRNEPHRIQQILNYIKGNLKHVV
Description: In vitro HDAC8 isoenzyme activity was tested using 1 U/well of recombinant protein HDAC8 (Enzo® Life Sciences) incubated with the Fluor-de-Lys®-HDAC8 substrate (50 µM) for 20 min at room temperature. Reactions were stopped by adding a developer II solution (Fluor-de-Lys® developer II concentrate, Enzo® Life Sciences) containing 2 µM of TSA. After 45 min of incubation at room temperature, fluorescence is measured as for total HDAC activity.

IC50 [µM]	Structure (SMILES)
74	Nc1cc(C(=O)c2cc([N+](=O)[O-])ccc2O)cnc1-c1ccccc1 [drawing 39]
58	N#Cc1ccc(-c2ncc(C(=O)c3cc([N+](=O)[O-])ccc3O)cc2N)cc1 [drawing 40]

Structure (SMILES)	IC50 [µM]
O=C(c1cc(C(=O)c2cc([N+](=O)[O-])ccc2O)cc([N+](=O)[O-])c1)c1cc([N+](=O)[O-])ccc1O [Compound 5, (5-Nitro-1,3-phenylene)bis[(2-hydroxy-5-nitrophenyl)methanone]]	27

test system: total HDAC; experiment: In vitro total HDAC activity (Fluor-de-Lys, HeLa nuclear extract); type: biochemical, human; details: screening at 100 µM, result in words
Description: In vitro total HDAC activity was measured according to manufacturer's instructions using a nuclear extract from HeLa cells (human cervical cancer cell line) as HDAC source incubated with the Fluor-de-Lys® substrate (50 µM) for 20 min at room temperature (Fluor-de-Lys®, Enzo® Life Sciences, Antwerpen, Belgium). Reaction was stopped by addition of a developing solution (Fluor-de-Lys® developer I concentrate, Enzo® Life Sciences) containing trichostatin A (TSA) (2 µM). After 15 min of incubation at room temperature, fluorescence signal was measured on a fluorescence microplate reader (SYNERGY HTX multi-mode reader) with an exciting wavelength of 360 nm and emission wavelength of 460 nm. All dilutions of tested compounds were prepared in dimethylsulfoxide (DMSO).
Representative examples of 3-aminopyridines and 3,5-disubstituted nitrobenzenes were screened for their total HDAC inhibition capacity at 100 µM (Table 2). It was observed that only nitro-containing examples were active in the total HDAC screening assay (compounds 1, 3, 9 and 5), which moved forward to the specific HDAC8 isoenzyme assay (Table 3).

Structure (SMILES)	total HDAC inhibition capacity
Nc1cc(C(=O)c2cc([N+](=O)[O-])ccc2O)cnc1-c1ccccc1 [Compound 1, (5-Amino-6-phenylpyridin-3-yl)(2-hydroxy-5-nitrophenyl)methanone]	active
Nc1cc(C(=O)c2ccccc2O)cnc1-c1ccc([N+](=O)[O-])cc1 [Compound 3, [5-Amino-6-(4-nitrophenyl)pyridin-3-yl](2-hydroxyphenyl)methanone]	active
O=C(c1cc(C(=O)c2cc([N+](=O)[O-])ccc2O)cc([N+](=O)[O-])c1)c1cc([N+](=O)[O-])ccc1O [Compound 5, (5-Nitro-1,3-phenylene)bis[(2-hydroxy-5-nitrophenyl)methanone]]	active
N#Cc1ccc(-c2ncc(C(=O)c3cc([N+](=O)[O-])ccc3O)cc2N)cc1 [Compound 9, 4-[3-amino-5-(2-hydroxy-5-nitrobenzoyl)pyridin-2-yl]benzonitrile]	active

same assay, conditions: total HDAC activity, nuclear extract from HeLa cells, compound at 100 µM

Structure (SMILES)	%Inhibition at 100 µM
Nc1cc(C(=O)c2ccccc2O)cnc1-c1ccccc1	Inactive
Nc1cc(C(=O)c2ccccc2O)cnc1-c1ccc2ccccc2c1	Inactive
Cc1cc(C(=O)c2cnc(-c3ccccc3)c(N)c2)c(O)c([N+](=O)[O-])c1	67%
O=C(c1cc(C(=O)c2ccccc2O)cc([N+](=O)[O-])c1)c1ccccc1O	Inactive
Cc1ccc(O)c(C(=O)c2cc(C(=O)c3cc(C)ccc3O)cc([N+](=O)[O-])c2)c1	Inactive
O=C(c1cc(C(=O)c2cc(Cl)ccc2O)cc([N+](=O)[O-])c1)c1cc(Cl)ccc1O	Inactive
COc1cccc(O)c1C(=O)c1cc(C(=O)c2c(O)cccc2OC)cc([N+](=O)[O-])c1	Inactive
Cc1cc(C(=O)c2cc(C(=O)c3cc(C)cc([N+](=O)[O-])c3O)cc([N+](=O)[O-])c2)c(O)c([N+](=O)[O-])c1	65%
Nc1cc(C(=O)c2cc([N+](=O)[O-])ccc2O)cnc1-c1ccccc1 [drawing 28]	78%
N#Cc1ccc(-c2ncc(C(=O)c3cc([N+](=O)[O-])ccc3O)cc2N)cc1 [drawing 29]	82%
Nc1cc(C(=O)c2ccccc2O)cnc1-c1ccc([N+](=O)[O-])cc1 [drawing 30]	67%
O=C(c1cc(C(=O)c2cc([N+](=O)[O-])ccc2O)cc([N+](=O)[O-])c1)c1cc([N+](=O)[O-])ccc1O [drawing 37]	73%

From EP4306106A1, “NITRO-CONTAINING COMPOUNDS, COMPOSITIONS AND USES THEREOF” (Universidade de Aveiro, priority 2022, dated 2024)
